Key:
[1] = tested on: skin samples derived from dorsal body hair skin transplanted in Balb/c nu/nu mice; assay: Evaluation of hair growth activity: drug applied on skin samples from mouse dorsal body hair skin grafted onto Balb/c nu/nu mice; format: in vivo
Procedure: C57BL/6N mice (male) and Balb/c nu/nu mice (female) were purchased from Japan SLC, Inc.(Japan) and bred, and were thereafter made available for the following testing. Note that the testing and breeding of animals complied with pertinent laws, regulations, ordinances, and guidelines, and was performed with the approval of the Experimental Ethics Review Board of the Institute of Physical and Chemical Research.
The following reagents were respectively prepared. • Placebo: 60% aqueous ethanol solution • Working Example 1: 0.05% solution of palmitoyl dipeptide-5 diaminobutyloyl hydroxythreonine
To collect dorsal body hair skin in the form of anagen stage VI skin 12 to 14 days following depilation. C57BL/6N mice of age 7 to 8 weeks were depilated at locations where dorsal body hair skin was intended to be collected, and were bred for 12 to 14 days. The depilated C57BL/6N mice were thereafter euthanized by cervical dislocation, following which a suitable amount of dorsal body hair skin was collected from the locations at which dorsal body hair skin was intended to be collected.
The collected skin was immersed in DMEM culture medium (hereinafter “DMEM 10”) which contained 10 mM HEPES, 10% fetal bovine serum, and 1% penicillin/streptomycin solution. The collected dorsal body hair skin was grasped with bent-nose curved tweezers and was treated by immersion for 10 seconds in a sterilizing solution. Sterilization treatment was performed by carrying out treatment with 7% povidone iodine solution two times, treatment with PBS (−) three times, and treatment with DMEM 10 two times, in this order, with fresh solutions respectively being used each time. Following sterilization treatment, these were immersed in clean DMEM 10.
Following sterilization treatment, the dorsal body hair skin was cut into pieces and formed into blocks. The transparent connective tissue which adhered to the cutaneous muscle layer of the skin was excised therefrom using curved scissors, and hair groups were cut into rectangular strips in parallel fashion with respect to the direction of the wave of the hair. At this time, these were cut into blocks such that there were 6 rows of hair follicles along the long axis, adjustment having been carried out so that there were 5 rows of hair follicles along the short axis.
The skin samples derived from dorsal body hair skin that were prepared in accordance with the foregoing were grafted onto Balb/c nu/nu mice of age 4 to 6 weeks.
More specifically, mice were anesthetized in the usual way using isoflurane gas. The dorsal area of the mice was then disinfected using 7% povidone iodine solution, following which the mice were made to assume a naturally recumbent posture. In addition, a Mani ophthalmic knife (Mani, Inc.; Japan) was used to pierce the skin at the dorsal area of the mice, the grafts which were formed extending from the epidermal layer of the skin to the subdermal layer. The skin samples derived from dorsal body hair skin were inserted into the grafts formed thereat in such fashion as to cause the hair groups to be directed toward the body surface side of the grafts. Skin sample transplanted depth was adjusted so as to cause the top portion of the hair group to be in a state such that it was exposed at the top portion of the graft. To protect the grafts, Nurseban (registered trademark) (Sunplanet Co., Ltd.; Japan) and surgical tape (3M Japan Limited; Japan) were then used as protective tape to cover the grafts at which the skin samples derived from dorsal body hair skin had been transplanted. The protective tape was removed 5 to 7 days following transplantation, and survival of the transplanted skin samples derived from dorsal body hair skin was determined by visual inspection or digital microscopy (Keyence Corporation: Japan), after which follow-up observation was carried out.
For the first hair cycle, 60% aqueous ethanol solution was applied thereto as placebo. […]

FGF-7 gene = FGF-7 gene expression in human dermal papilla cells by real-time PCR; format: cell-based; conditions: 24 hours, FIG. 4
Procedure: Testing and evaluation were carried out with maintenance and culture of human dermal papilla cells being performed in the same manner as at Exemplary Test 3, above.
As drugs for testing, drug solutions of the following respective concentrations (final concentrations) were prepared and used. • Comparative Example 1: 100 μM adenosine • Working Example 1: 1 μM palmitoyl dipeptide-5 diaminobutyloyl hydroxythreonine • Working Example 2: 10 μM palmitoyl dipeptide-5 diaminobutyloyl hydroxythreonine • Working Example 3: 300 μM palmitoyl dipeptide-5 diaminobutyloyl hydroxythreonine
A 24-well plate was seeded with human dermal papilla cells so as to obtain 6×10^3 thereof per well. […]
Following culture, total RNA was extracted from the respective wells and was recovered, and this was reverse-transcribed into cDNA. […] The GAPDH gene was used as an internal standard, the amount of FGF-7 gene expression being calculated relative to the negative control group.
A FastGene RNA Basic Kit (Catalog No. FG-80250; Nippon Genetics Co., Ltd. (Japan)) was used to recover total RNA from cells. […] Concentration of the recovered RNA was measured using a NanoDrop Lite (Catalog No. ND-LITE; Thermo Fisher Scientific K.K.), and this was stored at −80° C. until the following cDNA creation procedure. […]

[2] = tested on: human dermal papilla cells; assay: Dermal papilla cell growth promotion (Cell Count Reagent SF absorbance); format: cell-based; conditions: 10.268375 to 328.588 μM
Procedure: Human dermal papilla cells (Catalog No. CA602t05a: derived from person: Toy obo Co., Ltd. (Japan)) were purchased, testing and evaluation being carried out with maintenance and culture of cells being performed as described in the protocol.
As drugs for testing, drug solutions consisting of culture medium for human dermal papilla cells containing palmitoyl dipeptide-5 diaminobutyloyl hydroxythreonine in the following respective concentrations (final concentrations) were prepared, and these were used. • Working Example 1: 10.268375 μM • Working Example 2: 20.53675 μM • Working Example 3: 41.0735 μM • Working Example 4: 82.147 μM • Working Example 5: 164.294 μM • Working Example 6: 328.588 μM
A 96-well plate was seeded with human dermal papilla cells so as to obtain 1×10^3 thereof per well. […] After this had been added thereto, absorbance (measurement wavelength 450 nm; reference wavelength 620 nm) of the culture supernatant was measured. Based on these values, the cell growth rates at the respective wells were calculated, at which time the cell growth rate of the control group at which nothing had been added was taken to be 100%.

[3] = tested on: hair shafts (zigzag hairs) of skin samples transplanted in Balb/c nu/nu mice; assay: Measurement of increase in hair diameter on hair shafts from Exemplary Test 1; format: in vivo
Procedure: Measurement of increase in hair diameter was carried out using hair shafts that had completed the second cycle at the foregoing Exemplary Test 1. Of the hair shafts that were collected, three zigzag hairs were used for measurement of increase in hair diameter. Three locations were selected in regions where diameter was large in the central portions thereof using a square […] on a side. For each of the selected regions, five different locations were further selected, and hair shaft diameter of the zigzag hairs thereat was measured to evaluate the degree to which increase in hair diameter had occurred.
Here, ** at FIG. 2 and TABLE 2 indicates p<0.01, i.e., that the results are significant.

[4] = 0.05% solution applied topically to transplanted skin samples, second hair cycle
[5] = 0.05% solution, second hair cycle vs placebo applied in first hair cycle

palmitoyl dipeptide-5 diaminobutyloyl hydroxythreonine
Hair shaft elongation rate [1, 4]: 0.40 ± 0.08 mm/day | Maximum hair shaft length [1, 4]: 5.1 ± 0.3 mm | Hair shaft elongation rate, percent change relative to reference data [1, 5]: 110.45% | Maximum hair shaft length, percent change relative to reference data [1, 5]: 103.27% | Hair growth activity (in words) ([1]; solution containing 0.05%): exhibit hair growth activity | Hair shaft elongation rate as compared with reference data (in words) ([1]; solution containing 0.05%): significant improvement | Maximum hair shaft length as compared with reference data (in words) ([1]; solution containing 0.05%): significant improvement | Amount of expression of FGF-7 gene as compared with control group (in words) (FGF-7 gene; 1 μM and 10 μM): increase in the amount of expression of the FGF-7 gene | Amount of expression of FGF-7 gene compared with 100 μM adenosine (in words) (FGF-7 gene; increased amount added): greater than that which was produced as a result of action of adenosine | Cell growth rate as compared with control group at which nothing had been added (in words) ([2]; 24, 48 or 72 hours, FIG. 3): increase in cell growth rate | Concentration dependence of cell growth rate (in words) ([2]; within concentration domain tested): increased in concentration-dependent fashion | Hair diameter as compared with 60% aqueous ethanol control (in words) ([3]; 0.05% solution): clear increase in hair diameter | Hair shaft diameter, percent increase ([3]; second hair cycle vs placebo applied in first hair cycle): 137% | Hair shaft diameter ([3]; zigzag hairs after second hair cycle, 0.05% solution, p<0.01): 22.0 ± 1.6 ** μm

From US20230390356A1, “HAIR GROWTH AGENT” (ADJUVANT HOLDINGS CO., LTD., priority 2020, published 2023)
